The test system of one data set is patients. Particulars: human, in vivo, po. An excerpt: the six patients under therapy by oral administration of la-dihydroxyvitamin D3 and the one patient receiving orally administered la,25-dihydroxyvitamin D3 were subjected to the following analyses, tests and measurements at intervals of twice a month in the first two months of administration and once a month in the subsequent period: blood analysis for determining the number of erythrocytes, the number of platelets and the percentage of leucocytes; urine analysis for determining the levels of urinary protein, glucose, pH, acetone and urobilinogen and the presence of occult blood; testing liver functions by determining the levels of blood GOT, GPT and total bilirubin; testing kidney functions by determining the levels of blood creatinine and BUN; and the measurement of blood calcium and inorganic phosphate levels.

The next data set has as its system psoriasis vulgaris. The data set is described as follows: Peroral administration to patients with psoriasis vulgaris (case reports). It counts as in vivo, human. Particulars: for psoriasis vulgaris severity: 0.75 µg per day orally. As to the method:
In order to treat this disease, 0.75 µg of la-hydroxyvitamin D3 was orally administered per day.
This patient had been suffering from psoriasis vulgaris for one year, during which period they were under therapy involving external use of corticosteroid. […] Thereafter, the external use of corticosteroid was suspended and only la-hydroxyvitamin D3 was kept administered perorally.
After suspending the external use of corticosteroid, peroral administration of la-hydroxyvitamin D3 in a daily dose of 1 µg was initiated.
This patient had been suffering from psoriasis vulgaris for 2 years.

Data set [1] can be described thus: Acute toxicity test (LD50), rats. Particulars: rat, in vivo, 5-week-old SD-TCL rats, Litchfield-Wilcoxon method. Here is the method:
(§1) Acute toxicity of la-hydroxyvitamin D3 was evaluated by its peroral and subcutaneous administration to mice and rats.

Data set [2] can be described thus: Acute toxicity test (LD50), mice. As to conditions: mouse, in vivo, 5-week-old ddY mice, Litchfield-Wilcoxon method. Here is the method:
as §1

[3] abbreviates: patient, daily dose of 1 µg perorally, two months, external corticosteroid suspended.

By LD50 is commonly meant the dose expected to kill half of the subjects tested.

As for `C=C1/C(=C\C=C2/CCC[C@]3(C)[C@@H]([C@H](C)CCCC(C)(C)O)CC[C@@H]23)C[C@@H](O)C[C@@H]1O` [la,25-dihydroxyvitamin D3], in the data set on patients, the “abnormal subjective symptom or objective sign” value was “Not a single patient under therapy had any abnormal subjective symptom or objective sign”; the “change of blood, urine, liver function, kidney function, blood calcium and inorganic phosphate parameters from values prior to treatment” value is “None of the parameters analyzed showed any abnormal change”. In addition, the dermal lesion condition result in the data set on psoriasis vulgaris (patient, daily dose of 0.5 µg perorally, three months, diminished rashes and flares) was “moderate improvement in the dermal lesion condition”.
In the case of `C=C1/C(=C\C=C2/CCC[C@]3(C)[C@@H]([C@H](C)CCCC(C)C)CC[C@@H]23)C[C@@H](O)C[C@@H]1O` [la-hydroxyvitamin D3, 1α-hydroxyvitamin D3], the “abnormal subjective symptom or objective sign” value in the data set on patients was “Not a single patient under therapy had any abnormal subjective symptom or objective sign”. Moreover, the “change of blood, urine, liver function, kidney function, blood calcium and inorganic phosphate parameters from values prior to treatment” value in the data set with patients was “None of the parameters analyzed showed any abnormal change”. For the same compound, the median lethal dose (LD50) stood at 0.743 mg/kg in data set [1] (po, Peroral, female); 0.62 mg/kg in data set [1] (po, Peroral, male); 0.04 mg/kg in data set [1] (sc, subcutaneous, female); 0.056 mg/kg in data set [1] (sc, subcutaneous, male); 0.71 mg/kg in data set [2] (po, Peroral, female); 0.68 mg/kg in data set [2] (po, Peroral, male). In addition, the LD50 in data set [2] (sc, subcutaneous, female) was 0.058 mg/kg; in data set [2] (sc, subcutaneous, male), 0.055 mg/kg. The dermal lesion condition result in the data set on psoriasis vulgaris (patient (psoriasis for 6 years), daily dose of 1 µg perorally, three months) is “moderate improvement in the dermal lesion condition”; with psoriasis vulgaris (patient (psoriasis for 25 years), daily dose of 1 µg perorally, three months), “moderate improvement in the dermal lesion condition”; in the data set on psoriasis vulgaris (patient, 1.0 µg per day orally, four months later, with external corticosteroid, slight loss of dermal pigment remained), “improved pronouncedly”; in the data set with psoriasis vulgaris (patient, 1.0 µg per day orally, two months after start, with external corticosteroid), “a sign of improvement in the dermal lesion condition”; in the data set with psoriasis vulgaris (patient, daily dose of 1 µg orally, two months after start), “diminished by a small degree”; in the data set with psoriasis vulgaris (patient, daily dose of 1 µg orally, two more months later), “pronounced improvement in the condition”. Moreover, the dermal lesion condition entry with psoriasis vulgaris (patient, peroral only, external corticosteroid suspended, six months later) is recorded as “completely cured”. The psoriasis vulgaris severity entry is listed as “virtually disappeared” in the data set with psoriasis vulgaris (patient, a half month after the two months and a half); “dramatically diminished in severity” in the data set with psoriasis vulgaris (patient, two months and a half after start). Besides, the “condition of the lesion elsewhere on the body” value with psoriasis vulgaris (setting [3]) is listed as “improved markedly”. Further, in the data set on psoriasis vulgaris (setting [3]), the “dermal lesion on the soles” value is listed as “disappeared”. Also, the maintenance of improvement result in the data set on psoriasis vulgaris (patient, subsequent peroral daily dose of 0.5 ug) is given as “improvement could be maintained”.
